The values that follow come from patent US12109176B1, “Effect of glycerol on biofilm forming bacteria and fungi that changes the microbes sensitivity to pro and anti-biofilm non-toxic, non-bonded plasma amino acids and amino acid derivatives” (priority 2023, dated 2024).

The subject of test [1] is fungal biofilm (C. albicans). The test can be described thus: Fungal biofilm inhibition assay. The format is cell-based, Candida albicans. The protocol: (§1) Two types of biofilm assays were performed: an inhibition assay and a disruption assay. The inhibition assay assesses the compound's ability to prevent biofilm development, while the disruption assay assesses the compound's ability to break up an existing mature biofilm.
(§2) All bacterial biofilm solutions were prepared in Tryptic Soy Broth (TSB), supplemented with 1% glucose (henceforth referred to as TSB-G). All subsequent procedures were performed in a manner that maintained sterility. A solution of each amino acid or an amino acid derivative to be tested was prepared in weight to volume concentrations ranging from 0.1-5.0%. Amino acids and amino acid derivatives were also tested in combinations. Compound solutions were homogenized with gentle agitation in the dark (4° C., 24 hours) before use.
(§3) 32 Amino acids and 2 amino acid derivatives of the amino acid serine that occur freely in human blood were tested. […] 31 of the 32 amino acids that were tested were the L-Isomers. Glycine has no stereoisomers. The 2 amino acid derivatives, ethanolamine and phosphoethanolamine were also tested. All biofilm assays were performed using 384-well non-tissue culture-treated polystyrene plates. The fungal species tested are as follows: Candida albicans, Candida guilliermondii, Candida parapsilosis, Candida glabrata, Candida tropicalis and Candida dubliniensis. The bacterial species tested are as follows: Staphylococci (standard wild type and methicillin-resistant strain USA300), Escherichia coli, Pseudomonas aeruginosa and Staphylococcus epidermidis.
(§4) Fungal strains were streaked on Yeast Peptone Dextrose (YPD) agar plates and incubated at 30° C. for 48 hours. A single colony from each strain to be tested was inoculated into YPD broth and grown for 12 hours at 30° C., shaking at 225 rpm. […] The cells were allowed to adhere to the plate for 90 minutes at 37° C. with shaking (350 rpm). […] The plate was further incubated for 24 hours at 37° C. with shaking (350 rpm). Media was carefully aspirated and the biofilm was measured by optical density at 600 nm. […] The cells were allowed to adhere to the plate for 90 minutes at 37° C. with shaking (350 rpm). […] The plate was further incubated for 24 hours at 37° C. with shaking (350 rpm). […] The plate was further incubated for 24 hours at 37° C. with shaking (350 rpm). Media was carefully aspirated, and the biofilm was measured by optical density at 600 nm.

Test [2] deals with fungal biofilm (C. albicans). In words: Fungal biofilm disruption assay. The format is cell-based, Candida albicans. The protocol:
as §1, §2, §3, §4

Test [3] relates to bacterial (S. aureus) biofilm. In words: Bacterial biofilm inhibition assay. The format is cell-based, Staphylococcus aureus. The protocol:
as §1, §2, §3
(§5) Bacterial strains were streaked on Blood Agar plates (5% sheep blood in Tryptic Soy Broth) and incubated at 37° C. for 24 hours. A single colony from each strain to be tested was inoculated in a TSB broth and grown for 12 hours, at 37° C. with shaking (225 rpm). For the bacterial biofilm inhibition assays, 1 μL of saturated overnight cell culture was added to either 80 μL of TSB-G, or TSB-G supplemented with the amino acid compound solution to be tested, in a 384-well plate. The cells were allowed to adhere to the plate for 60 minutes at 37° C. without shaking. The media was carefully aspirated and 80 μL of TSB-G, or TSB-G supplemented with the amino acid compound solution was added to the plate. The plate was further incubated for 24 hours at 37° C. without shaking. Media was carefully aspirated and the biofilm was measured by optical density at 600 nm. Eight or twelve replicates were performed for each tested condition and the reported values are normalized to the control (TSB-G media only). For the bacterial biofilm disruption assays, 80 µL of TSB-G was added to the plate, along with 1 μL of overnight cell culture. The cells were allowed to adhere to the plate for 60 minutes at 37° C. with no shaking. The media was carefully aspirated and 80 μL of TSB-G was added to the plate. The plate was further incubated for 24 hours at 37° C. with no shaking. Media was carefully aspirated from the mature biofilm and 80 μL of TSB-G, or TSB-G supplemented with the amino acid to be tested, was gently added to the plate. The plate was further incubated for 24 hours at 37° C. without shaking. Media was aspirated and the biofilm was measured by optical density at 600 nm. Twelve replicates were performed for each tested condition and the reported values are normalized to the control (TSB-G media only).

The test system of test [4] is bacterial (S. aureus) biofilm. The test can be described thus: Bacterial biofilm disruption assay. Format: cell-based, Staphylococcus aureus. The protocol: as §1, §2, §3, §5
For test [5], the system named is bacterial (S. aureus) biofilm and fungal biofilm (C. albicans). In words: Biofilm inhibition assay, bacterial and fungal taken together. Format: cell-based.
Test [6] has the same test system. The test can be described thus: Biofilm disruption assay, bacterial and fungal taken together. Format: cell-based. The protocol:
as §1, §2, §3, §4
as §5, with “plate.” for “plate. The plate was further incubated for 24 hours at 37° C. without shaking. Media was aspirated and the biofilm was measured by optical density at 600 nm. Twelve replicates were performed for each tested condition and the reported values are normalized to the control (TSB-G media only).”

The next test concerns bacterial biofilm. In words: In vitro testing on bacterial biofilm (inhibition and/or disruption). Particulars: in vitro testing. Format: cell-based.
The subject of another test is fungal biofilm. In words: In vitro testing on fungal biofilm (inhibition and/or disruption). The format is cell-based. Particulars: in vitro testing. The protocol:
as §1, §2, §3, §4

Test [7] has as its system bacterial and fungal biofilm. The test can be described thus: In vitro testing on bacterial and fungal biofilm (assay not told apart). Format: cell-based. Particulars: for effect on bacterial and fungal biofilm (in words): in vitro testing. The protocol:
as §1, §2, §3, §4
as §5, with “plate.” for “plate. The plate was further incubated for 24 hours at 37° C. without shaking. Media was aspirated and the biofilm was measured by optical density at 600 nm. Twelve replicates were performed for each tested condition and the reported values are normalized to the control (TSB-G media only).”

Setting [8] is: Table F, in the presence of a sufficient concentration of glycerol.
The mark [9] stands for this setting: Table D, bacterial and fungal biofilm.
Where [10] appears, read: Table E, in the absence of an infusion of glycerol.

Consider `N[C@@H](CC(=O)O)C(=O)O` [Aspartic Acid, L-aspartic acid], for which the “Reduce or Inhibit F Biofilm (squares: Inhibition Biofilm Assay)” value is “▪▪ (Two squares [ie. ▪▪] signifies a major effect (greater than about 50%), on the Inhibition Biofilm Assay)” in test [1] (Table D, 0.1 to 5.0%) and “▪▪ (Two squares [ie. ▪▪] signifies a major effect (greater than about 50%), on the Inhibition Biofilm Assay)” in test [1] (setting [8]). The “Reduce or Inhibit F Biofilm (dots: Disruption Biofilm Assay)” value in test [2] (Table D, 0.1 to 5.0%) was “●● (Two dots [ie. ●●] signifies a major effect (greater than about 50%), on the Disruption Biofilm Assay)”; in test [2] (setting [8]), “●● (Two dots [ie. ●●] signifies a major effect (greater than about 50%), on the Disruption Biofilm Assay)”. Further, the “Reduce or Inhibit B Biofilm (squares: Inhibition Biofilm Assay)” value in [3] (Table D, 0.1 to 5.0%) was “▪▪ (Two squares [ie. ▪▪] signifies a major effect (greater than about 50%), on the Inhibition Biofilm Assay)”; in [3] (setting [8]), “▪▪ (Two squares [ie. ▪▪] signifies a major effect (greater than about 50%), on the Inhibition Biofilm Assay)”. The “Reduce or Inhibit B Biofilm (dots: Disruption Biofilm Assay)” value in test [4] (Table D, 0.1 to 5.0%) was “●● (Two dots [ie. ●●] signifies a major effect (greater than about 50%), on the Disruption Biofilm Assay)”; in test [4] (setting [8]), “●● (Two dots [ie. ●●] signifies a major effect (greater than about 50%), on the Disruption Biofilm Assay)”. In addition, the “Reduce Both (squares: Inhibition Biofilm Assay)” value is “▪▪ (Two squares [ie. ▪▪] signifies a major effect (greater than about 50%), on the Inhibition Biofilm Assay)” in test [5] (setting [9]) and “▪▪ (Two squares [ie. ▪▪] signifies a major effect (greater than about 50%), on the Inhibition Biofilm Assay)” in [5] (setting [8]). In addition, the “Reduce Both (dots: Disruption Biofilm Assay)” value in test [6] (setting [9]) was “●● (Two dots [ie. ●●] signifies a major effect (greater than about 50%), on the Disruption Biofilm Assay)”; in test [6] (setting [8]), “●● (Two dots [ie. ●●] signifies a major effect (greater than about 50%), on the Disruption Biofilm Assay)”. For the same compound, the “effect on bacterial biofilm (in words)” value in the test with bacterial biofilm is given as “antibacterial biofilm effect”. For the same compound, the “effect on fungal biofilm (in words)” value in the test on fungal biofilm is listed as “antifungal biofilm effects”. The “ideal concentration for antibiofilm effect” value in test [7] (in the absence of glycerol on in vitro testing) stood at 0.5 g %. The “effect on bacterial and fungal biofilm (in words)” value was “very active against both bacterial and fungal biofilm” in test [7]; “strong effect on biofilm-forming bacteria and fungi in reducing biofilm formation” in test [7] (listed as Aspartic acid). The “concentration of maximum (ideal) antibiofilm effect” value in [7] (tested on its own, without glycerol) is listed as 0.5%.
As to `O=C(O)[C@@H]1C[C@@H](O)CN1` [Hydroxyproline, Trans-4-hydroxy-L-proline], the “Reduce or Inhibit F Biofilm (squares: Inhibition Biofilm Assay)” value in test [1] (Table D, 0.1 to 5.0%) was “▪ (Single square [ie. ▪] signifies little effect on the Inhibition Biofilm Assay (from about 10 to less than 30%))”; in [1] (setting [8]), “▪ (Single square [ie. ▪] signifies little effect on the Inhibition Biofilm Assay (from about 10 to less than 30%))”. In addition, the “Reduce or Inhibit B Biofilm (squares: Inhibition Biofilm Assay)” value in [3] (Table D, 0.1 to 5.0%) is “▪ (Single square [ie. ▪] signifies little effect on the Inhibition Biofilm Assay (from about 10 to less than 30%))”; in test [3] (setting [8]) it was “▪ (Single square [ie. ▪] signifies little effect on the Inhibition Biofilm Assay (from about 10 to less than 30%))”. Besides, the “Reduce or Inhibit B Biofilm (dots: Disruption Biofilm Assay)” value in test [4] (Table D, 0.1 to 5.0%) is “● (Single dot [ie. ●] signifies little effect on the Disruption Biofilm Assay (from about 10 to less than 30%))”; in [4] (setting [8]), “● (Single dot [ie. ●] signifies little effect on the Disruption Biofilm Assay (from about 10 to less than 30%))”. For the same compound, the “effect on bacterial biofilm (in words)” value in the test on bacterial biofilm was “antibacterial biofilm effect”. The “effect on fungal biofilm (in words)” value in the test with fungal biofilm was “antifungal biofilm effects”.
Turning to `Cn1cncc1C[C@H](N)C(=O)O` [3-Methylhistidine, 3-methyl-L-histidine], the “Promote F Biofilm (squares: Inhibition Biofilm Assay)” value in test [1] (Table D, 0.1 to 5.0%) is “▪ (Single square [ie. ▪] signifies little effect on the Inhibition Biofilm Assay (from about 10 to less than 30%))”; in test [1] (setting [10]), “▪ (Single square [ie. ▪] signifies little effect on the Inhibition Biofilm Assay (from about 10 to less than 30%))”. Further, the “Promote F Biofilm (dots: Disruption Biofilm Assay)” value in test [2] (Table D, 0.1 to 5.0%) is “● (Single dot [ie. ●] signifies little effect on the Disruption Biofilm Assay (from about 10 to less than 30%))”; in [2] (setting [10]), “● (Single dot [ie. ●] signifies little effect on the Disruption Biofilm Assay (from about 10 to less than 30%))”. Also, the “Reduce or Inhibit B Biofilm (dots: Disruption Biofilm Assay)” value in test [4] (Table D, 0.1 to 5.0%) is “● (Single dot [ie. ●] signifies little effect on the Disruption Biofilm Assay (from about 10 to less than 30%))”; in [4] (setting [8]), “● (Single dot [ie. ●] signifies little effect on the Disruption Biofilm Assay (from about 10 to less than 30%))”. For the same compound, the “effect on bacterial biofilm (in words)” value in the test with bacterial biofilm was “antibacterial biofilm effect”. Further, the “effect on fungal biofilm (in words)” value in the test on fungal biofilm is given as “promoted fungal biofilm formation”.
